{
  "source": "paper PMC8804135",
  "about": "(Neurotherapeutics, 2021)",
  "key": {"GAL2R": {"target": "T1, GAL2R (Homo sapiens, UniProt O43603)", "T1 sequence (O43603 1-387)": "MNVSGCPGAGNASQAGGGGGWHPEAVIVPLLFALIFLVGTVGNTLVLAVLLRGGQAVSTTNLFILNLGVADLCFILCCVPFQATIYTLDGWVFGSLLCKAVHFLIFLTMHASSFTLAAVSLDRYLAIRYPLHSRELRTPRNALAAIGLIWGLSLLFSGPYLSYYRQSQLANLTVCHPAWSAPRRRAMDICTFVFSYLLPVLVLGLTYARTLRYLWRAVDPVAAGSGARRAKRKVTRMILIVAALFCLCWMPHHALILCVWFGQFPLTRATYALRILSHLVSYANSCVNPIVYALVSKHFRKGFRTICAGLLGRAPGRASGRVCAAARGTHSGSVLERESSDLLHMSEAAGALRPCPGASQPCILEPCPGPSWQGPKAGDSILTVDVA", "assay": "Fluo-4 Direct calcium assay (Ca efflux) in HEK293 cells overexpressing GAL2R", "type": "cell-based", "settings": "Table 3; HEK293 cells stably overexpressing GAL2R; Fluo-4, from 10 µM; (average) ratio, (n) in cell = number of assays; NA = ratio above 1000", "protocol": "Calcium efflux was measured by using a Fluo-4 Direct Calcium Assay purchased from Thermo Fisher Scientific. HEK293 cells with stable overexpression of GAL2R (HEKR2) (kindly provided by Harald Dargatz, Molecular, Cellular and Pharmacobiology Section, Institute of Pharmaceutical Biology, University of Bonn, 53,115 Bonn, Germany) were used for analysis of the lanthipeptides. HEKR2 cells were seeded in a 96-well plate and grown overnight in DMEM supplemented with 10% FBS, 1% penicillin–streptomycin, 100 µg/ml Normocin, and 500 µg/ml G418 at 37 °C, 5% CO2 in a humidified incubator.\nThe next day, when the cells were nearly confluent, an equal amount of 2 × Fluo-4 Direct™ calcium reagent loading solution, containing 5 mM probenecid, was added to the wells, and the plate was incubated for 1 h at 37 °C. A serial 3 × dilution of the agonist compound in water was made, and 10 µl of the serial dilutions was applied to the cells in duplicate. The starting concentration of agonist in the assay was 10 µM. After 1–2 h of incubation at room temperature, the fluorescence was measured with excitation at 485/20 nm and emission at 528/20 nm with a Synergy HT Biotek reader."}, "GAL1R": {"target": "T2, GAL1R (Homo sapiens, UniProt P47211)", "T2 sequence (P47211 1-349)": "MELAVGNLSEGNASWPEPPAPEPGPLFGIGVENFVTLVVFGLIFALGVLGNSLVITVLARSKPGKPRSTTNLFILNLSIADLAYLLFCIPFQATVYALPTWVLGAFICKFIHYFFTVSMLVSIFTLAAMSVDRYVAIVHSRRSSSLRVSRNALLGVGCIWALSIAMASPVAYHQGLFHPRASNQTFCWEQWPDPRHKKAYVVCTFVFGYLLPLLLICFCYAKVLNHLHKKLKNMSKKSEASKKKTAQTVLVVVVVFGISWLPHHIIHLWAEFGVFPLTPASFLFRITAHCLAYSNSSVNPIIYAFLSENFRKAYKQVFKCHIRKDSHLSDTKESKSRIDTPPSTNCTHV", "assay": "SRE luciferase reporter assay, GAL1R-transfected HEK293 Gqi cells", "settings": "transiently transfected HEK293 Gqi cells; up to 10 µM, 5 h"}, "GAL3R": {"target": "T3, GAL3R (Homo sapiens, UniProt O60755)", "T3 sequence (O60755 1-368)": "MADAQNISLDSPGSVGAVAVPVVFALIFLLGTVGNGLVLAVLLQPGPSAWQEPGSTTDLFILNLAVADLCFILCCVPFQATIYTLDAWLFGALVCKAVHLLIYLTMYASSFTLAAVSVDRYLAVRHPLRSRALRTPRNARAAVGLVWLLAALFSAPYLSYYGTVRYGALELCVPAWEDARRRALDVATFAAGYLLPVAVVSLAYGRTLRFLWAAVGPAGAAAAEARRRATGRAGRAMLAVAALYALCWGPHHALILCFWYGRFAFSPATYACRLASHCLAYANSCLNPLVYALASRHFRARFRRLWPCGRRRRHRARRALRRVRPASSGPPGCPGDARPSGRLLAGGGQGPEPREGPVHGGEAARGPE", "assay": "SRE luciferase reporter assay, GAL3R-transfected HEK293 Gqi cells", "settings": "transiently transfected HEK293 Gqi cells; up to 10 µM, 5 h"}},
  "note": "Numbered stars: 1 amine (or outer) side, 2 acyl side, 3 side chain; on linkers, the order of the positions; unused ones are H or OH. Bridge positions count the residues as written; N and C are the ends. Square brackets hold non-standard residues; d marks the D form. Peptide text beside a SMILES is read from it. dAbu(3S-yl) = C[C@@H]([C@@H](N[*:1])C(=O)[*:2])[*:3]; pGlu = O=C1CC[C@@H](C(=O)O)N1",
  "data": [
    {"smiles": "CC(C)C[C@H](NC(=O)[C@H](CC(C)C)NC(=O)[C@H](Cc1ccc(O)cc1)NC(=O)CNC(=O)[C@H](C)NC(=O)[C@H](C)NC(=O)[C@H](CC(N)=O)NC(=O)[C@H](CC(C)C)NC(=O)[C@H](CC(N)=O)NC(=O)[C@H](Cc1c[nH]c2ccccc12)NC(=O)[C@@H]1CCC(=O)N1)C(=O)N[C@@H](C)C(=O)N[C@H]1C(=O)N[C@@H](Cc2c[nH]cn2)C(=O)N[C@@H](C)C(=O)N[C@H](C(=O)NCC(=O)O)CS[C@H]1C", "note": "[Variant M89b, G1pE-T3N-S6A-G12A-methyllanthionine[13–16]-galanin-(1–17)] ([pGlu]WNLNAAGYLLA[dAbu(3S-yl)]HACG-OH; thioether 13-16; C-terminus assumed)", "values": [
      {"measurement": "EC50 ratios to Gal-(1-15), GAL2R Ca-efflux", "setting": "GAL2R", "result": "1.4 (3)"},
      {"measurement": "Stimulation of GAL1R, luciferase reporter", "setting": "GAL1R", "result": "inability to stimulate"},
      {"measurement": "Stimulation of GAL3R, luciferase reporter", "setting": "GAL3R", "result": "inability to stimulate"}
    ]}
  ]
}
